Like-named read-outs stand apart in the source and are kept apart here.
Key:
Assay type in all cases: cell-based
Conditions in all cases: 7 days after inoculation
Alternaria solani = assay: M5 microtiter test, early blight caused by Alternaria solani (Alteso)
Phytophthora infestans = system: Phytophthora infestans
Pyricularia oryzae = system: Pyricularia oryzae
Septoria tritici = assay: M4 microtiter test, leaf blotch on wheat caused by Septoria tritici (Septtr)
Botrytis cinerea = assay: M2 microtiterplate test, grey mold Botrytis cinerea (Botrci)
Leptosphaeria nodorum = assay: M6 microtiter test, wheat leaf spots caused by Leptosphaeria nodorum (Leptno)

Structure (SMILES): O=c1[c-](-c2cccc(C(F)(F)F)c2)c(=O)[n+](Cc2cncnc2)c2ccccn12 [Triflumezopyrim (II-7), 3,4-dihydro-2,4-dioxo-1-(pyrimidin-5-ylmethyl)-3-(α,α,α-trifluoro-m-tolyl)-2H-pyrido[1,2-a]pyrimidin-1-ium-3-ide]
- Observed efficacy (Alternaria solani; 0.25 ppm): 36%

Structure (SMILES): CNC(=O)Oc1cc(C)c(SC)c(C)c1 [Methiocarb (II-4), 4-methylthio-3,5-xylyl methylcarbamate]
- Observed efficacy (Phytophthora infestans; 63 ppm): 51%
- Observed efficacy (Pyricularia oryzae; 63 ppm): 36%
- Observed efficacy (Septoria tritici; 0.063 ppm): 6%

Structure (SMILES): CC(O)(Cn1cncn1)c1ccc(Oc2ccc(Cl)cc2)cc1C(F)(F)F (centres unmarked) [I-3, 2-[4-(4-chlorophenoxy)-2-(trifluoromethyl)phenyl]-1-(1,2,4-triazol-1-yl)propan-2-ol]
- Observed efficacy (Phytophthora infestans; 0.063 ppm): 12%
- Observed efficacy (Botrytis cinerea; 0.063 ppm): 42%
- Observed efficacy (Pyricularia oryzae; 0.25 ppm): 10%
- Observed efficacy (Septoria tritici; 0.00025 ppm): 28%
- Observed efficacy (Alternaria solani; 0.001 ppm): 9%
- Observed efficacy (Leptosphaeria nodorum; 0.016 ppm): 35%

Structure (SMILES): Cc1cc(C(F)(F)F)nn1CC(=O)N1CCC(c2nc(C3=NOC(c4c(F)cccc4F)C3)cs2)CC1 (racemic) [Oxathiapiprolin (II-1), 1-(4-{4-[(5 RS)-5-(2,6-difluorophenyl)-4,5-dihydro-1,2-oxazol-3-yl]-1,3-thiazol-2-yl}-1-piperidyl)-2-[5-methyl-3-(trifluoromethyl)-1H-pyrazol-1-yl]ethanone]
- Observed efficacy (Botrytis cinerea; 16 ppm): 4%
- Observed efficacy (Botrytis cinerea; 63 ppm): 23%

Structure (SMILES): CC(C)(C)C(O)C(Oc1ccc(Cl)cc1)n1cncn1 (centres unmarked) [Triadimenol (II-2), (1 RS,2 RS;1 RS,2 SR)-1-(4-chlorophenoxy)-3,3-dimethyl-1-(1H-1,2,4-triazol-1-yl)butan-2-ol]
- Observed efficacy (Botrytis cinerea; 4 ppm): 39%

Structure (SMILES): CC(c1ccc(C(F)(F)F)nc1)S(C)(=O)=NC#N (centres unmarked) [Sulfoxaflor (II-3), [methyl(oxo){1-[6-(trifluoromethyl)-3-pyridyl]ethyl}-Λ^6-sulfanylidene]cyanamide]
- Observed efficacy (Leptosphaeria nodorum; 16 ppm (commercial finished formulation diluted with water)): 0%

Reference: patent publication US10212934B2, “Pesticidal compositions” (BASF AGRO B.V., priority 2014, dated 2019)
